Experimental data: PubChem BioAssay AID328 (DTP/NCI, 2004)
Where “and” joins values, the source holds several entries; their conditions need not be identical. Equal entries are not always repeated. Inconclusive results and toxic doses are left out.

System: BDF1 mice, P388 leukemia ip, median survival T/C
Assay: NCI In Vivo Anticancer Drug Screen. Data for tumor model P388 Leukemia (intraperitoneal) in B6D2F1 (BDF1) mice
Settings: endpoint: median survival time, higher = longer survival
Method in brief: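 Compound-treated tumour-bearing mice were compared with vehicle-treated controls. Survival was recorded, and the value is the treated-group measurement divided by the control-group measurement (T/C).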

[1] = dose: 12.5 mg/kg/injection, schedule: Q04DX003 (ip), vehicle: saline with Tween-80
[2] = dose: 25.0 mg/kg/injection, schedule: Q04DX003 (ip), vehicle: saline with Tween-80
[3] = dose: 50.0 mg/kg/injection, schedule: Q04DX003 (ip), vehicle: saline with Tween-80
[4] = dose: 50.0 mg/kg/injection, schedule: Q01DX009 (ip), vehicle: saline
[5] = dose: 100.0 mg/kg/injection, schedule: Q01DX009 (ip), vehicle: saline
[6] = dose: 100.0 mg/kg/injection, schedule: Q04DX003 (ip), vehicle: Klucel (hydroxypropylcellulose) (HPC)
[7] = dose: 200.0 mg/kg/injection, schedule: Q04DX003 (ip), vehicle: Klucel (hydroxypropylcellulose) (HPC)
[8] = dose: 400.0 mg/kg/injection, schedule: Q04DX003 (ip), vehicle: Klucel (hydroxypropylcellulose) (HPC)
[9] = dose: 12.5 mg/kg/injection, schedule: Q01DX009 (ip), vehicle: saline
[10] = dose: 25.0 mg/kg/injection, schedule: Q01DX009 (ip), vehicle: saline
[11] = dose: 25.0 mg/kg/injection, schedule: Q04DX003 (ip), vehicle: saline
[12] = dose: 50.0 mg/kg/injection, schedule: Q04DX003 (ip), vehicle: saline
[13] = dose: 100.0 mg/kg/injection, schedule: Q01DX009 (ip), vehicle: saline with Tween-80
[14] = dose: 200.0 mg/kg/injection, schedule: Q01DX009 (ip), vehicle: saline with Tween-80
[15] = dose: 400.0 mg/kg/injection, schedule: Q01DX009 (ip), vehicle: saline with Tween-80
[16] = dose: 100.0 mg/kg/injection, schedule: Q04DX003 (ip), vehicle: saline
[17] = dose: 200.0 mg/kg/injection, schedule: Q04DX003 (ip), vehicle: saline
[18] = dose: 400.0 mg/kg/injection, schedule: Q04DX003 (ip), vehicle: saline
[19] = dose: 100.0 mg/kg/injection, schedule: Q01DX009 (ip), vehicle: Klucel (hydroxypropylcellulose) (HPC)
[20] = dose: 200.0 mg/kg/injection, schedule: Q01DX009 (ip), vehicle: Klucel (hydroxypropylcellulose) (HPC)

SMILES: CN=C(NC)c1ccc(NC(=O)/C=C\c2ccc(C(=O)Nc3ccc(C(=NC)NC)cc3)cc2)cc1
- T/C (dose: 0.15 mg/kg/injection, schedule: Q01DX009 (ip), vehicle: saline with Tween-80): 116 % of control
- T/C (dose: 0.5 mg/kg/injection, schedule: Q01DX009 (ip), vehicle: saline with Tween-80): 155 % of control
- T/C (dose: 1.32 mg/kg/injection, schedule: Q04DX003 (ip), vehicle: saline with Tween-80): 108 % of control
- T/C (dose: 1.5 mg/kg/injection, schedule: Q01DX009 (ip), vehicle: saline with Tween-80): 161 % of control
- T/C (dose: 2.0 mg/kg/injection, schedule: Q04DX003 (ip), vehicle: saline with Tween-80): 112 % of control
- T/C (dose: 4.4 mg/kg/injection, schedule: Q04DX003 (ip), vehicle: saline with Tween-80): 154 % of control
- T/C (dose: 4.5 mg/kg/injection, schedule: Q04DX003 (ip), vehicle: saline with Tween-80): 162 % of control
- T/C (dose: 6.6 mg/kg/injection, schedule: Q04DX003 (ip), vehicle: saline with Tween-80): 168 % of control
- T/C (dose: 10.0 mg/kg/injection, schedule: Q04DX003 (ip), vehicle: saline with Tween-80): 154 % of control
- T/C [1]: 177 % of control
- T/C (dose: 15.0 mg/kg/injection, schedule: Q04DX003 (ip), vehicle: saline with Tween-80): 177 % of control
- T/C [2]: 100 % of control
- T/C [3]: 86 % of control

SMILES: CCCCCCCCCCCCNC
- T/C [1]: 104 % of control
- T/C [2]: 109 % of control
- T/C [3]: 100 % of control

SMILES: CCOC(=O)CCC#N
- T/C [4]: 100 % of control
- T/C [5]: 116 % of control
- T/C (dose: 400.0 mg/kg/injection, schedule: Q01DX009 (ip), vehicle: saline): 99 % of control

SMILES: Cc1ccccc1NC(=O)Nc1ccccc1C
- T/C (dose: 0.37 mg/kg/injection, schedule: Q01DX009 (ip), vehicle: Klucel (hydroxypropylcellulose) (HPC)): 88 % of control
- T/C (dose: 0.75 mg/kg/injection, schedule: Q01DX009 (ip), vehicle: Klucel (hydroxypropylcellulose) (HPC)): 100 % of control
- T/C (dose: 1.5 mg/kg/injection, schedule: Q01DX009 (ip), vehicle: Klucel (hydroxypropylcellulose) (HPC)): 107 % of control
- T/C [6]: 104 % of control
- T/C [7]: 95 % of control
- T/C [8]: 109 % of control

SMILES: c1nc(SC2=NCCN2)c2[nH]cnc2n1
- T/C (dose: 4.12 mg/kg/injection, schedule: Q01DX009 (ip), vehicle: saline): 118 % of control
- T/C (dose: 6.25 mg/kg/injection, schedule: Q01DX009 (ip), vehicle: saline): 150 % of control
- T/C (dose: 9.37 mg/kg/injection, schedule: Q01DX009 (ip), vehicle: saline): 122 % of control
- T/C [9]: 119 % of control
- T/C (dose: 12.5 mg/kg/injection, schedule: Q04DX003 (ip), vehicle: saline): 115 % of control
- T/C (dose: 21.0 mg/kg/injection, schedule: Q01DX009 (ip), vehicle: saline): 100 % of control
- T/C [10]: 123 % of control
- T/C [11]: 115 % of control
- T/C [12]: 123 % of control

SMILES: CC(C)COC(=O)CN(CC(=O)OCC(C)C)c1ccccc1
- T/C [13]: 95 % of control
- T/C [14]: 100 % of control
- T/C [15]: 110 % of control

SMILES: CCCCN(CCCC)CCOC(=O)c1ccc([N+](=O)[O-])cc1
- T/C (dose: 50.0 mg/kg/injection, schedule: Q01DX001 (ip), vehicle: saline): 100 % of control
- T/C (dose: 100.0 mg/kg/injection, schedule: Q01DX001 (ip), vehicle: saline): 100 % of control
- T/C (dose: 200.0 mg/kg/injection, schedule: Q01DX001 (ip), vehicle: saline): 100 % of control

SMILES: CC1C=CC(C(N)C(=O)O)O1 (stereo unspecified)
- T/C [16]: 100 % of control
- T/C [17]: 100 % of control
- T/C [18]: 95 % of control and 100 % of control

SMILES: Cn1cnc([N+](=O)[O-])c1Sc1ncnc2c1ncn2C1OC(CO)C(O)C1O (stereo unspecified)
- T/C (dose: 50.0 mg/kg/injection, schedule: Q01DX009 (ip), vehicle: Klucel (hydroxypropylcellulose) (HPC)): 113 % of control
- T/C [19]: 154 % of control
- T/C [20]: 122 % of control

SMILES: O=C1C(Cl)=C(Cl)C(=O)C(/C=C/N2CCOCC2)=C1Cl
- T/C (dose: 6.25 mg/kg/injection, schedule: Q01DX001 (ip), vehicle: saline with Tween-80): 109 % of control
- T/C (dose: 12.5 mg/kg/injection, schedule: Q01DX001 (ip), vehicle: saline with Tween-80): 117 % of control
- T/C (dose: 25.0 mg/kg/injection, schedule: Q01DX001 (ip), vehicle: saline with Tween-80): 104 % of control
- T/C (dose: 50.0 mg/kg/injection, schedule: Q01DX001 (ip), vehicle: saline with Tween-80): 113 % of control

SMILES: CCC(=O)c1cc(OC)cc(OC)c1
- T/C [16]: 115 % of control
- T/C [17]: 120 % of control
- T/C [18]: 120 % of control

SMILES: CC(C)(O)C(Cl)(Cl)Cl
- T/C [12]: 115 % of control
- T/C [16]: 111 % of control
- T/C [17]: 107 % of control

SMILES: O=C1NC(=O)C(c2ccccc2)(c2ccccc2)N1CCS
- T/C [9]: 96 % of control and 104 % of control
- T/C [10]: 99 % of control and 104 % of control
- T/C [4]: 93 % of control
- T/C [5]: 89 % of control and 99 % of control
- T/C (dose: 200.0 mg/kg/injection, schedule: Q01DX009 (ip), vehicle: saline): 112 % of control and 113 % of control

SMILES: CN(C)c1ccc(C2OC3(CCCCC3)C[N+]23CCCC3)cc1 (stereo unspecified)
- T/C (dose: 18.0 mg/kg/injection, schedule: Q01DX009 (ip), vehicle: saline): 110 % of control
- T/C [11]: 95 % of control
- T/C (dose: 28.0 mg/kg/injection, schedule: Q01DX009 (ip), vehicle: saline): 105 % of control
- T/C (dose: 40.0 mg/kg/injection, schedule: Q01DX009 (ip), vehicle: saline): 94 % of control
- T/C [12]: 100 % of control
- T/C (dose: 75.0 mg/kg/injection, schedule: Q01DX001 (ip), vehicle: Klucel (hydroxypropylcellulose) (HPC)): 104 % of control
- T/C [16]: 90 % of control
- T/C (dose: 150.0 mg/kg/injection, schedule: Q01DX001 (ip), vehicle: Klucel (hydroxypropylcellulose) (HPC)): 100 % of control

SMILES: O=C(Nc1cc(Cl)ccc1Cl)c1ccccc1Cl
- T/C [19]: 100 % of control
- T/C [6]: 104 % of control
- T/C [20]: 113 % of control
- T/C [7]: 104 % of control
- T/C [8]: 100 % of control

SMILES: c1ccc(N=N/C(=N\Nc2ccccc2)SCCS/C(N=Nc2ccccc2)=N/Nc2ccccc2)cc1
- T/C (dose: 25.0 mg/kg/injection, schedule: Q01DX009 (ip), vehicle: saline with Tween-80): 99 % of control
- T/C (dose: 50.0 mg/kg/injection, schedule: Q01DX009 (ip), vehicle: saline with Tween-80): 99 % of control
- T/C [13]: 121 % of control

SMILES: O=C1C=CC(=O)N1c1ccc([N+](=O)[O-])cc1
- T/C (dose: 5.25 mg/kg/injection, schedule: Q01DX009 (ip), vehicle: Klucel (hydroxypropylcellulose) (HPC)): 90 % of control
- T/C (dose: 7.5 mg/kg/injection, schedule: Q04DX003 (ip), vehicle: Klucel (hydroxypropylcellulose) (HPC)): 116 % of control
- T/C (dose: 10.5 mg/kg/injection, schedule: Q01DX009 (ip), vehicle: Klucel (hydroxypropylcellulose) (HPC)): 90 % of control
- T/C (dose: 15.0 mg/kg/injection, schedule: Q04DX003 (ip), vehicle: Klucel (hydroxypropylcellulose) (HPC)): 95 % of control

SMILES: O=C(CC(NC(=O)OCc1ccccc1)C(=O)OCc1ccccc1)OCc1ccccc1 (stereo unspecified)
- T/C [13]: 97 % of control
- T/C [14]: 108 % of control
- T/C [15]: 97 % of control

SMILES: C=CCCCC[P+](c1ccccc1)(c1ccccc1)c1ccccc1
- T/C (dose: 0.75 mg/kg/injection, schedule: Q01DX010 (ip), vehicle: saline): 110 % of control
- T/C (dose: 1.5 mg/kg/injection, schedule: Q01DX010 (ip), vehicle: saline): 115 % of control and 120 % of control
- T/C (dose: 6.0 mg/kg/injection, schedule: Q01DX010 (ip), vehicle: saline): 152 % of control
- T/C (dose: 12.0 mg/kg/injection, schedule: Q01DX010 (ip), vehicle: saline): 110 % of control

SMILES: COC1=C(C)C(=O)C2=C(C1=O)C1C3CC4=C(C(=O)C(OC)=C(C)C4=O)C(CNC(=O)C(C)=O)N3C(C#N)C(C2)N1C (stereo unspecified)
- T/C (dose: 0.31 mg/kg/injection, schedule: Q01DX009 (ip), vehicle: Klucel (hydroxypropylcellulose) (HPC)): 151 % of control
- T/C (dose: 0.62 mg/kg/injection, schedule: Q01DX009 (ip), vehicle: Klucel (hydroxypropylcellulose) (HPC)): 183 % of control
- T/C (dose: 1.25 mg/kg/injection, schedule: Q01DX009 (ip), vehicle: Klucel (hydroxypropylcellulose) (HPC)): 159 % of control
